Broadly, the IC50 is the concentration needed to halve the response being measured. Read a high IC50 as lower potency.

Here are results for eleven molecules from US20240058340A1, “COMPOSITIONS AND METHODS FOR TREATING CANCER” (The Regents of the University of California, priority 2020, published 2024).

In data set [1] the test system is HCC827 (EGFR exon 19 deletion). Nature of the data set: Cellular IC50, Cell Titer Glo, HCC827 cell line. Format: cell-based. The conditions noted are these: Homo sapiens, HCC827 cells, 72 hours. The method, then: (§1) The PC-9 cell line was purchased from Sigma, and the HCC827 cell line was purchased from ATCC. Each cell line was maintained at ≤passage 10 at 37° C. in a humidified incubator with 5% CO2. Cells were plated in 96-well optical bottom plates (Corning #3903; Corning, NY) at a cell density of 5,000 cells/well, allowed to adhere for minimally 16 hours, and subsequently treated with the test compounds using an 11-point serial dilution (1:3) in duplicate using an HP D300 digital 4 dispenser (Tecan, Morrisville, NC). 72 hours after addition of the test compounds, Cell Titer Glo reagent (Promega, Madison, WI) was added to the plate according to manufacturer's protocol and luminescence measured using a Spectramax M5 (Molecular Devices, San Jose, CA). IC50s were calculated using the 4-parameter variable slope curve fit using the equation below where, Y and X are variables plotted, Top and Bottom are plateaus in the units of the Y axis, LogIC50 is the Log transformation of the IC50 value and HillSlope is the Hill Slope for the curve and describes curve steepness (GraphPad Prism, version 6.07, GraphPad Software, Inc.). Y=Bottom+(Top−Bottom)/(1+10((LogIC50−X)*HillSlope))).

Data set [2] concerns PC-9 (EGFR exon 19 deletion). Nature of the data set: Cellular IC50, Cell Titer Glo, PC-9 cell line. In kind it is cell-based. The conditions noted are these: Homo sapiens, PC-9 cells, 72 hours. As for the experimental part: as §1
On the technique in general: Cellular ATP, detected with luciferase, serves as a proxy for viable cell number.

The nature of data set [3]: Brain penetration in non-tumor bearing mice. Format: in vivo. The conditions noted are these: for Brain Penetration (% of plasma): brain to plasma percentage; for Kpuu (Avg): unbound ratio of drug in brain to plasma. An excerpt: Disclosed in table 5 Brain to plasma percentages and unbound ratios of drugs in brain to plasma of indicated drugs in non-tumor bearing mice

Structures are written as SMILES.

Take `CN1CCC2CN(C[C@H]3COc4cc5ncnc(Nc6cccc(Br)c6F)c5cc4O3)CC21` (stereo partly shown): the values for the IC50 in data set [1] and in data set [2] were 5.9 nM and 12.9 nM, respectively.

For `CN1CC2CN(C[C@H]3COc4cc5ncnc(Nc6cccc(Br)c6F)c5cc4O3)CC2C1` (stereo partly shown), the figures for the IC50 in data set [1] and in data set [2] were 14.3 nM and 21.7 nM, respectively.

As for `CN1CCN(C[C@H]2COc3cc4ncnc(Nc5cccc(Br)c5F)c4cc3O2)CCC1C(F)(F)F` (stereo partly shown), the IC50 stood at 36.9 nM in data set [1] and 54 nM in data set [2].

Take `CN1CCN(C[C@H]2COc3cc4ncnc(Nc5cccc(Br)c5F)c4cc3O2)CC(F)(F)C1`: the IC50 in data set [1] worked out at 50.6 nM; in data set [2], 140 nM.

As for `CN1CCC12CN(C[C@H]1COc3cc4ncnc(Nc5cccc(Br)c5F)c4cc3O1)C2`, the IC50 stood at 7 nM in data set [1] and 9.4 nM in data set [2].

For `CN1CC2(C1)CN(C[C@H]1COc3cc4ncnc(Nc5cccc(Br)c5F)c4cc3O1)C2`, the IC50 in data set [1] was 5.9 nM; in data set [2], 10.1 nM.

Turning to `C#Cc1cccc(Nc2ncnc3cc4c(cc23)OCCO4)c1` [JGK005], in data set [3], the “Brain Penetration (% of plasma)” value is 64.8 % of plasma and the “Kpuu (Avg)” value is recorded as 0.491.

For `Fc1c(Cl)cccc1Nc1ncnc2cc3c(cc12)OCCO3` [JGK010], in data set [3], the “Brain Penetration (% of plasma)” value was 106.4 % of plasma and the “Kpuu (Avg)” value is on record as 1.045.

With `Fc1cccc(Nc2ncnc3cc4c(cc23)OCCO4)c1F` [JGK028], in data set [3], the “Brain Penetration (% of plasma)” value is listed as 106.2 % of plasma and the “Kpuu (Avg)” value was 1.037.

As for `C#Cc1cccc(Nc2ncnc3cc4c(cc23)OCCO4)c1F` [JGK038], in data set [3], the “Brain Penetration (% of plasma)” value was 84.3 % of plasma and the “Kpuu (Avg)” value turned out to be 0.575.

Regarding `Fc1c(I)cccc1Nc1ncnc2cc3c(cc12)OCCO3` [JGK042], in data set [3], the “Brain Penetration (% of plasma)” value is on record as 167.6 % of plasma and the “Kpuu (Avg)” value was determined as 1.033.
